Data set [1] can be described thus: Reversal of multi-drug resistance in human KVB cells assessed as increase in PTX-induced cytotoxicity by measuring cell survival at 10 uM measured after 72 hrs incubation in presence of 100 nM paclitaxel by MTT assay relative to control. The data set is classed as functional, KBV.
The target of data set [2] is T1, ATP-dependent translocase ABCB1 (Homo sapiens, UniProt P08183). Briefly: Substrate activity at Pgp in human KVB cells assessed as intracellular accumulation measured after 4 hrs by LC-MS/MS analysis. The data set is classed as cell-based. Conditions: kbv.
T1 sequence (P08183 whole entry): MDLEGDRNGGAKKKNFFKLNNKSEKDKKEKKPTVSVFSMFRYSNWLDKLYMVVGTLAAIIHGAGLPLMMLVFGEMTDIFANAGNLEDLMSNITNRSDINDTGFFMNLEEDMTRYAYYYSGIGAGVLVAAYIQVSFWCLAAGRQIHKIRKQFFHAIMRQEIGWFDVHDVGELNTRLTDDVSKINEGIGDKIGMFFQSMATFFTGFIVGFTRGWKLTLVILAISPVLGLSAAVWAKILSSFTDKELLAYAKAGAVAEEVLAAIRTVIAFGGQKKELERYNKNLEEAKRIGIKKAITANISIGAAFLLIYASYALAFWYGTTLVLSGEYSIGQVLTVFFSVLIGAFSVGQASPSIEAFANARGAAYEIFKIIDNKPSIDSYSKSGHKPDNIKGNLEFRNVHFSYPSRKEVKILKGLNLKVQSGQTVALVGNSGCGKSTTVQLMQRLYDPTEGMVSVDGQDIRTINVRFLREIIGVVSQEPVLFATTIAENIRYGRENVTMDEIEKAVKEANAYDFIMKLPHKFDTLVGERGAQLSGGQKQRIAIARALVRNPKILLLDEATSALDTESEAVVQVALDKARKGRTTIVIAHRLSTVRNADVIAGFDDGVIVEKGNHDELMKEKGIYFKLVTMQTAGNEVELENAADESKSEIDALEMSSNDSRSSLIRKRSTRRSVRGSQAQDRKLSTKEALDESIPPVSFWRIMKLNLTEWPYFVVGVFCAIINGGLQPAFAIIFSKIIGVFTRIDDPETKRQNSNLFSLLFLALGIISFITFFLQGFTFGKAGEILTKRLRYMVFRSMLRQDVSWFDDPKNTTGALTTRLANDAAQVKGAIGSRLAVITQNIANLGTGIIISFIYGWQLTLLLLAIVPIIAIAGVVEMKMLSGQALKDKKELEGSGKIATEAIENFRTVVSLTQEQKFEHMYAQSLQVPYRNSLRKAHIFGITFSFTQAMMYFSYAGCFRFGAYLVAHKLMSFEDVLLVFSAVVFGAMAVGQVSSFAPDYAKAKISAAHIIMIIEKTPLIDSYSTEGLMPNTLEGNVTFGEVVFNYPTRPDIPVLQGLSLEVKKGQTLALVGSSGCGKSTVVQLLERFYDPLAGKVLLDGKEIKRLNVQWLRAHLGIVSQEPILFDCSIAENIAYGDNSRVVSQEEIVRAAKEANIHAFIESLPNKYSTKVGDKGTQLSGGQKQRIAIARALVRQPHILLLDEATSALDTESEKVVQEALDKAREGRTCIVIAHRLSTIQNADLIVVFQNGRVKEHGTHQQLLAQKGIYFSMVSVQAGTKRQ
Data set [3] in a line: Reversal of multi-drug resistance in human KVB cells assessed as increase in PTX-induced cytotoxicity by measuring cell survival at 5 uM measured after 72 hrs incubation in presence of 100 nM paclitaxel by MTT assay relative to control. It counts as functional, KBV. (In general: Tetrazolium assays rely on reduction of a dye to a coloured formazan, in cell work by metabolically active cells.)

Data set [4] in a line: Reversal fold, ratio of PTX IC50 to PTX IC50 in presence of test compound for reversal of multi-drug resistance in human KVB cells at 10 uM measured after 72 hrs by MTT assay. It counts as functional, KBV.
Data set [5] in a line: Cytotoxicity against human KBV cells assessed as cell survival at 10 uM measured after 72 hrs incubation by MTT assay relative to control. The data set is classed as functional. The settings on record: read-out: Activity.
Data set [6] is described as follows: Reversal fold, ratio of 5-fluorouracil IC50 to 5-fluorouracil IC50 in presence of test compound for reversal of multi-drug resistance in human KVB cells at 10 uM measured after 72 hrs by MTT assay. The data set is classed as functional, KBV.
Data set [7] in a line: Cytotoxicity against HUVEC cells assessed as cell survival measured after 72 hrs incubation by MTT assay. It counts as toxicity, cell-based. Conditions: human.
The target of data set [8] is T1, ATP-dependent translocase ABCB1. The data set is described as follows: Inhibition of P-gp-mediated rhodamine-123 efflux in human KVB cells assessed as increase in intracellular Rhodamine-123 accumulation at 10 uM incubated for 30 mins by flow cytometry. The data set is classed as cell-based. Conditions: kbv, 0.5 h. A general note: A flow cytometer gives signals particle by particle.

Data set [9] in a line: Cytotoxicity against human HK-2 cells assessed as cell survival measured after 72 hrs incubation by MTT assay. It counts as toxicity, cell-based.
A short description of data set [10]: Cytotoxicity against human KBV cells assessed as cell survival measured after 72 hrs incubation by MTT assay. It counts as functional, cell-based.
Data set [11] is described as follows: Reversal fold, ratio of cisplatin IC50 to cisplatin IC50 in presence of test compound for reversal of multi-drug resistance in human KVB cells at 25 uM measured after 72 hrs by MTT assay. The data set is classed as functional, KBV.
For data set [12], the system named is KBV. Briefly: Inhibition of colony formation of human KVB cells assessed as reduction in colonies at 2.5 uM measured after 48 hrs by crystal violet staining based analysis. The data set is classed as functional, cell-based.
The test system of data set [13] is KBV. The data set is described as follows: Antimigratory activity against human KVB cells assessed as inhibition of cell migration at 50 nM and incubated for 24 hrs by scratch wound healing assay. The data set is classed as functional, cell-based.

“And” between values parts separate entries of the source, which are not always exact repeats. Identical values can stand only once. Counter-ions that a name gives are not always drawn. The source made the active and inactive calls. No cut-off for these calls is given here.

`CC(C)(O)[C@H]1CC[C@@](C)([C@H]2CC[C@]3(C)[C@@H]2[C@H](O)C[C@@H]2[C@@]4(C)CC[C@H](NC(=O)[C@@H]5CCCN5)C(C)(C)[C@@H]4CC[C@]23C)O1`: the Activity was 30% in data set [1], “Not Active” in data set [2] and 38% in data set [3]. The Ratio in [4] was determined as 65.1. Besides, the viability at 10 µM in data set [5] was 100%.

Regarding `CC(C)(C)OC(=O)N1CCC[C@@H]1C(=O)N[C@H]1CC[C@]2(C)[C@H]3C[C@@H](O)[C@@H]4[C@@H]([C@]5(C)CC[C@H](C(C)(C)O)O5)CC[C@@]4(C)[C@]3(C)CC[C@H]2C1(C)C`, the figures for the Activity in data set [1], in data set [2] and in data set [3] were 21%, “Active” and 36%, respectively. Moreover, the Ratio in [4] was 157.7. Moreover, in data set [5], the viability at 10 µM was 88%.

Turning to `CC(C)(O)[C@H]1CC[C@@](C)([C@H]2CC[C@]3(C)[C@@H]2[C@H](O)C[C@@H]2[C@@]4(C)CC[C@H](O)C(C)(C)[C@@H]4CC[C@]23C)O1`, in data set [2], the Activity entry is recorded as “Not Active”.

As for `COc1ccc2c3c([nH]c2c1)[C@H](CC(C)C)N1C(=O)[C@H](CCC(=O)OC(C)(C)C)NC(=O)[C@@H]1C3`, the “Ratio IC50” value in data set [6] was 3.2.

For orientation: IC50 means the midpoint of a concentration-inhibition curve. As to `COc1cc2c(cc1OC)CN(CCc1ccc(NC(=O)c3cc(OC)c(OC)cc3NC(=O)c3cnc4ccccc4c3)cc1)CC2`, the Ratio in data set [4] was determined as 206.6. Also, the IC50 at 72 h worked out at 40.3 µM in data set [7] and 8.03 µM in data set [9] (read-out: IC50). The “inhibition (INH)” value in data set [8] is “Active”. Further, the IC50 in data set [10] amounted to 8.66 µM.

Take `CC(C)(O)[C@H]1CC[C@@](C)([C@H]2CC[C@]3(C)[C@@H]2[C@H](O)C[C@@H]2[C@@]4(C)CC[C@H](NC(=O)[C@H]5CCCCN5)C(C)(C)[C@@H]4CC[C@]23C)O1`: the results for the Activity in data set [1] and in data set [3] were 28% and 56%, respectively. In data set [4] (72 h, 10 µM), the Ratio was 89.1 and 106.3. Also, the viability at 10 µM in [5] was 99%.

Consider `COc1cccc2c1C(=O)c1c(O)c3c(c(O)c1C2=O)C[C@@](O)(C(=O)CO)C[C@@H]3O[C@H]1C[C@H](N)[C@H](O)[C@H](C)O1` [DOXORUBICIN HYDROCHLORIDE], for which, in [10], the IC50 came out at 8.19 µM.

Turning to `CC(C)(C)OC(=O)N1C[C@H](F)C[C@H]1C(=O)N[C@H]1CC[C@]2(C)[C@H]3C[C@@H](O)[C@@H]4[C@@H]([C@]5(C)CC[C@H](C(C)(C)O)O5)CC[C@@]4(C)[C@]3(C)CC[C@H]2C1(C)C`, the values for the Activity in [1] and in data set [3] were 26% and 46%, respectively. Also, the Ratio in [4] was found to be 102.4. The viability at 10 µM in data set [5] worked out at 114%.

With `CC(C)(C)OC(=O)N1CC[C@@H](C(=O)N[C@H]2CC[C@]3(C)[C@H]4C[C@@H](O)[C@@H]5[C@@H]([C@]6(C)CC[C@H](C(C)(C)O)O6)CC[C@@]5(C)[C@]4(C)CC[C@H]3C2(C)C)C1`, the Activity in data set [1] worked out at 31%; in data set [3], 54%. Also, in data set [4], the Ratio is 76. The viability at 10 µM in [5] amounted to 81%.

As for `CC(C)(C)OC(=O)N1CCCC[C@H]1C(=O)N[C@H]1CC[C@]2(C)[C@H]3C[C@@H](O)[C@@H]4[C@@H]([C@]5(C)CC[C@H](C(C)(C)O)O5)CC[C@@]4(C)[C@]3(C)CC[C@H]2C1(C)C`, the Activity was 26% in [1] and 61% in [3]. For the same molecule, in data set [4], the Ratio is given as 66. For the same molecule, the viability at 10 µM in data set [5] came to 102%.

Take `CC(C)(C)OC(=O)NCCCCCC(=O)N[C@H]1CC[C@]2(C)[C@H]3C[C@@H](O)[C@@H]4[C@@H]([C@]5(C)CC[C@H](C(C)(C)O)O5)CC[C@@]4(C)[C@]3(C)CC[C@H]2C1(C)C`: the result in data set [2] was Active.

In the case of `CC(C)(C)OC(=O)N1CC[C@@H]1C(=O)N[C@H]1CC[C@]2(C)[C@H]3C[C@@H](O)[C@@H]4[C@@H]([C@]5(C)CC[C@H](C(C)(C)O)O5)CC[C@@]4(C)[C@]3(C)CC[C@H]2C1(C)C`, the values for the Activity in data set [1] and in [3] were 27% and 47%, respectively. In addition, the Ratio in data set [4] is 100.1. Also, in data set [5], the viability at 10 µM came to 99%.

`O=c1[nH]cc(F)c(=O)[nH]1` [FLUOROURACIL]: the IC50 in data set [10] is 829 µM.

`CN(C)C(=O)CCSC(SCCC(=O)O)c1cccc(/C=C/c2ccc3ccc(Cl)cc3n2)c1` (centres undefined) [MK-571]: in [11], the “Ratio IC50” value is 6.4.

On to `CC(=O)O[C@H]1C(=O)[C@@]2(C)[C@H]([C@H](OC(=O)c3ccccc3)[C@]3(O)C[C@H](OC(=O)[C@H](O)[C@@H](NC(=O)c4ccccc4)c4ccccc4)C(C)=C1C3(C)C)[C@]1(OC(C)=O)CO[C@@H]1C[C@@H]2O`, for which the outcome in the data set with KBV [12] and in the data set with KBV [13] was inactive.

With `COc1ccc(CCN(C)CCCC(C#N)(c2ccc(OC)c(OC)c2)C(C)C)cc1OC` (centres undefined), the outcome in data set [2] was Active. In addition, the IC50 at 72 h in [7] is greater than 100 µM; in data set [9], 53.4 µM.

For the molecule `CC(C)(C)OC(=O)N1CC(C(=O)N[C@H]2CC[C@]3(C)[C@H]4C[C@@H](O)[C@@H]5[C@@H]([C@]6(C)CC[C@H](C(C)(C)O)O6)CC[C@@]5(C)[C@]4(C)CC[C@H]3C2(C)C)C1`, the figures for the Activity in [1] and in data set [3] were 54% and 80%, respectively. Besides, the viability at 10 µM in data set [5] came to 91%.

The record behind these values is ChEMBL document CHEMBL5500376, “Novel pyxinol amide derivatives bearing an aliphatic heterocycle as P-glycoprotein modulators for overcoming multidrug resistance” (Eur J Med Chem, 2024).
